{"source": "patent US20190358181A1", "about": "“METHODS FOR AUTISM SPECTRUM DISORDER PHARMACOTHERAPY” (priority 2017, published 2019)", "test_system": "610 metabolites from 63 biochemical pathways", "assay": "Targeted broad-spectrum plasma metabolomic analysis (LC-MS/MS), paired pre-infusion vs post-infusion (2-days and 6-weeks)", "format": "in vivo, human", "settings": "plasma, 2-days after infusion vs pre-infusion", "description": "Targeted, broad-spectrum, plasma metabolomic analysis of 610 metabolites from 63 biochemical pathways was performed by high performance liquid chromatography and tandem mass spectrometry (LC-MS/MS) on the samples collected from patients in Example 1. Venous blood was collected between the hours of 8 am and 5 pm, at least 3 hours after the last meal, into lithium-heparin vacutainer tubes (BD #367884). Plasma was separated by centrifugation at 900 g×10 minutes at room temperature within one hour of collection. The resulting fresh lithium-heparin plasma was transferred to labeled 1.2 ml or 2.0 ml externally threaded cryotubes with a minimum headspace air gap for storage at −80° C. for analysis. Samples were analyzed on an AB SCIEX QTRAP 5500 triple quadrupole mass spectrometer equipped with a Turbo V electrospray ionization (ESI) source, Shimadzu LC-20A UHPLC system, and a PAL CTC autosampler. Typically, 90 μl of plasma was thawed on ice and transferred to a 1.7 ml Eppendorf tube. Five (5.0) μl of a cocktail containing 25-35 commercial stable isotope internal standards, and 5.0 μl of 57 stable isotope internal standards that were custom-synthesized in E. coli NCM3722, Caenorhabditis elegans N2, and Komagataella phaffii (ATCC 76273; formerly known as Pichia pastoris) by metabolic labeling with 13C-glucose and 13C-bicarbonate, were added, mixed, and incubated for 10 min at 20° C. to permit small molecules and vitamins in the internal standards to associate with plasma binding proteins. Macromolecules (protein, DNA, RNA, glycans, etc.) were precipitated by extraction with 4 volumes (400 μl) of cold (−20° C.), acetonitrile:methanol (50:50) (LCMS grade, Cat #LC015-2.5 and GC230-4, Burdick & Jackson, Honeywell), vortexed vigorously, and incubated on crushed ice for 10 min, then removed by centrifugation at 16,000 g×10 min at 4° C. The supernatants containing the extracted metabolites and internal standards in the resulting 40:40:20 solvent mix of acetonitrile:methanol:water were transferred to labeled cryotubes and stored at −80° C. for LCMS/MS analysis.\nLC-MS/MS analysis was performed by scheduled multiple reaction monitoring (sMRM) under Analyst v1.6.2 software control in both negative and positive mode with rapid polarity switching (50 ms). Nitrogen was used for curtain gas (set to 30), collision gas (set to high), ion source gas 1 and 2 (set to 35). The source temperature was 500° C. Spray voltage was set to −4500 V in negative mode and 5500 V in positive mode. The values for Q1 and Q3 mass-to-charge ratios (m/z), declustering potential (DP), entrance potential (EP), collision energy (CE), and collision cell exit potential (CXP) were determined and optimized for each MRM for each metabolite. Ten microliters of extract was injected by PAL CTC autosampler via a 10 μl stainless steel loop into a 250 mm×2.0 mm, 4 μm polymer based NH2 HPLC column (Asahipak NH2P-40 2E, Showa Denko America, Inc., NY) held at 25° C. for chromatographic separation. The mobile phase was solvent A: 95% water with 20 mM (NH4)2CO3 (Sigma, Fluka Cat #74415-250G-F), 5% acetonitrile, and 38 mM NH4OH (Sigma, Fluka Cat #17837-100ML), final pH 9.75; solvent B: 100% acetonitrile. Separation was achieved using the following gradient: 0-3.5 min: 95% B, 3.6-8 min: 85% B, 8.1-13 min: 75% B, 13.5-35 min: 0% B, 36-46 min: 95% B, 46.1 min: end. The flow rate was 200 μl/min. Pump pressures ranged from 920-2600 psi over the course of the gradient. All the samples were kept at 4° C. during analysis. The chromatographic peaks were identified using MultiQuant (v3.0, Sciex), confirmed by manual inspection, and the peak areas integrated. […]", "key": {"[1]": {"settings": "Cholesterol, Cortisol, Non-Gonadal Steroid Metabolism"}, "[2]": {"settings": "Eicosanoid and Resolvin Metabolism"}, "[3]": {"settings": "Fatty Acid Oxidation and Synthesis"}, "[4]": {"settings": "GABA, Glutamate, Arginine, Ornithine, Proline Metabolism"}, "[5]": {"settings": "Gamma-Glutamyl and other Dipeptides"}, "[6]": {"settings": "Glycolysis and Gluconeogenesis Metabolism"}, "[7]": {"settings": "Histidine, Histamine, Carnosine Metabolism"}, "[8]": {"settings": "Nitric Oxide, Superoxide, Peroxide Metabolism"}}, "data": [{"smiles": "Cc1ccc(C(=O)Nc2ccc(S(=O)(=O)O)c3cc(S(=O)(=O)O)cc(S(=O)(=O)O)c23)cc1NC(=O)c1cccc(NC(=O)Nc2cccc(C(=O)Nc3cc(C(=O)Nc4ccc(S(=O)(=O)O)c5cc(S(=O)(=O)O)cc(S(=O)(=O)O)c45)ccc3C)c2)c1", "note": "[Suramin, suramin]", "values": [{"measurement": "Z Abs, Ceramide(d18:1/18:2)", "setting": "Ceramide Metabolism", "result": 0.530}, {"measurement": "Z Score, Ceramide(d18:1/18:2)", "setting": "Ceramide Metabolism", "result": 0.530}, {"measurement": "Linear Ratio, 24,25-Epoxycholesterol", "setting": "[1]", "result": 1.362}, {"measurement": "VIP Score, 24,25-Epoxycholesterol", "setting": "[1]", "result": 1.807}, {"measurement": "Z Abs, 24,25-Epoxycholesterol", "setting": "[1]", "result": 1.014}, {"measurement": "Z Score, 24,25-Epoxycholesterol", "setting": "[1]", "result": 1.014}, {"measurement": "Linear Ratio, 5-HETE", "setting": "[2]", "result": 0.866}, {"measurement": "Linear Ratio, 11(R)-HETE", "setting": "[2]", "result": 0.748}, {"measurement": "Linear Ratio, 11,12-Epoxyeicosatrienoic acid", "setting": "[2]", "result": 0.828}, {"measurement": "Linear Ratio, Prostaglandin J2", "setting": "[2]", "result": 0.649}, {"measurement": "VIP Score, 5-HETE", "setting": "[2]", "result": 1.646}, {"measurement": "VIP Score, 11(R)-HETE", "setting": "[2]", "result": 2.400}, {"measurement": "VIP Score, 11,12-Epoxyeicosatrienoic acid", "setting": "[2]", "result": 1.535}, {"measurement": "VIP Score, Prostaglandin J2", "setting": "[2]", "result": 1.509}, {"measurement": "Z Abs, 5-HETE", "setting": "[2]", "result": 0.671}, {"measurement": "Z Abs, 11(R)-HETE", "setting": "[2]", "result": 0.875}, {"measurement": "Z Abs, 11,12-Epoxyeicosatrienoic acid", "setting": "[2]", "result": 0.634}, {"measurement": "Z Abs, Prostaglandin J2", "setting": "[2]", "result": 0.601}, {"measurement": "Z Score, 5-HETE", "setting": "[2]", "result": "−0.671"}, {"measurement": "Z Score, 11(R)-HETE", "setting": "[2]", "result": "−0.875"}, {"measurement": "Z Score, 11,12-Epoxyeicosatrienoic acid", "setting": "[2]", "result": "−0.634"}, {"measurement": "Z Score, Prostaglandin J2", "setting": "[2]", "result": "−0.601"}, {"measurement": "Linear Ratio, Anandamide", "setting": "Endocannabinoid Metabolism", "result": 0.684}, {"measurement": "VIP Score, Anandamide", "setting": "Endocannabinoid Metabolism", "result": 1.713}, {"measurement": "Z Abs, Anandamide", "setting": "Endocannabinoid Metabolism", "result": 0.709}, {"measurement": "Z Score, Anandamide", "setting": "Endocannabinoid Metabolism", "result": "−0.709"}, {"measurement": "Linear Ratio, Malonic acid", "setting": "[3]", "result": 0.904}, {"measurement": "VIP Score, Malonic acid", "setting": "[3]", "result": 1.833}, {"measurement": "Z Abs, Malonic acid", "setting": "[3]", "result": 0.825}, {"measurement": "Z Score, Malonic acid", "setting": "[3]", "result": "−0.825"}, {"measurement": "Linear Ratio, Gamma-Aminobutyric acid", "setting": "[4]", "result": 1.068}, {"measurement": "Linear Ratio, L-Proline", "setting": "[4]", "result": 1.155}, {"measurement": "Linear Ratio, N-Acetylglutamic acid", "setting": "[4]", "result": 1.120}, {"measurement": "VIP Score, Gamma-Aminobutyric acid", "setting": "[4]", "result": 1.626}, {"measurement": "VIP Score, L-Proline", "setting": "[4]", "result": 1.548}, {"measurement": "VIP Score, N-Acetylglutamic acid", "setting": "[4]", "result": 1.505}, {"measurement": "Z Abs, Gamma-Aminobutyric acid", "setting": "[4]", "result": 1.101}, {"measurement": "Z Abs, L-Proline", "setting": "[4]", "result": 0.603}, {"measurement": "Z Abs, N-Acetylglutamic acid", "setting": "[4]", "result": 0.613}, {"measurement": "Z Score, Gamma-Aminobutyric acid", "setting": "[4]", "result": 1.101}, {"measurement": "Z Score, L-Proline", "setting": "[4]", "result": 0.603}, {"measurement": "Z Score, N-Acetylglutamic acid", "setting": "[4]", "result": 0.613}, {"measurement": "Linear Ratio, Gamma-glutamyl-Alanine", "setting": "[5]", "result": 1.294}, {"measurement": "Linear Ratio, Glycylproline", "setting": "[5]", "result": 1.773}, {"measurement": "VIP Score, Gamma-glutamyl-Alanine", "setting": "[5]", "result": 1.575}, {"measurement": "VIP Score, Glycylproline", "setting": "[5]", "result": 2.205}, {"measurement": "Z Abs, Gamma-glutamyl-Alanine", "setting": "[5]", "result": 0.896}, {"measurement": "Z Abs, Glycylproline", "setting": "[5]", "result": 1.212}, {"measurement": "Z Score, Gamma-glutamyl-Alanine", "setting": "[5]", "result": 0.896}, {"measurement": "Z Score, Glycylproline", "setting": "[5]", "result": 1.212}, {"measurement": "Linear Ratio, 2,3-Diphosphoglyceric acid", "setting": "[6]", "result": 1.198}, {"measurement": "Linear Ratio, Glycerol 3-phosphate", "setting": "[6]", "result": 1.187}, {"measurement": "VIP Score, 2,3-Diphosphoglyceric acid", "setting": "[6]", "result": 2.600}, {"measurement": "VIP Score, Glycerol 3-phosphate", "setting": "[6]", "result": 1.651}, {"measurement": "Z Abs, 2,3-Diphosphoglyceric acid", "setting": "[6]", "result": 0.990}, {"measurement": "Z Abs, Glycerol 3-phosphate", "setting": "[6]", "result": 1.151}, {"measurement": "Z Score, 2,3-Diphosphoglyceric acid", "setting": "[6]", "result": 0.990}, {"measurement": "Z Score, Glycerol 3-phosphate", "setting": "[6]", "result": 1.151}, {"measurement": "Linear Ratio, GC(18:1/22:0)", "setting": "Glycosphingolipid Metabolism", "result": 1.399}, {"measurement": "VIP Score, GC(18:1/22:0)", "setting": "Glycosphingolipid Metabolism", "result": 2.123}, {"measurement": "Z Abs, GC(18:1/22:0)", "setting": "Glycosphingolipid Metabolism", "result": 1.057}, {"measurement": "Z Score, GC(18:1/22:0)", "setting": "Glycosphingolipid Metabolism", "result": 1.057}, {"measurement": "Linear Ratio, 1-Methylhistidine", "setting": "[7]", "result": 1.145}, {"measurement": "VIP Score, 1-Methylhistidine", "setting": "[7]", "result": 1.848}, {"measurement": "Z Abs, 1-Methylhistidine", "setting": "[7]", "result": 0.899}, {"measurement": "Z Score, 1-Methylhistidine", "setting": "[7]", "result": 0.899}, {"measurement": "Linear Ratio, Citramalic acid", "setting": "Krebs Cycle", "result": 1.121}, {"measurement": "Linear Ratio, Citric acid", "setting": "Krebs Cycle", "result": 1.142}, {"measurement": "VIP Score, Citramalic acid", "setting": "Krebs Cycle", "result": 1.704}, {"measurement": "VIP Score, Citric acid", "setting": "Krebs Cycle", "result": 1.590}, {"measurement": "Z Abs, Citramalic acid", "setting": "Krebs Cycle", "result": 1.229}, {"measurement": "Z Abs, Citric acid", "setting": "Krebs Cycle", "result": 0.759}, {"measurement": "Z Score, Citramalic acid", "setting": "Krebs Cycle", "result": 1.229}, {"measurement": "Z Score, Citric acid", "setting": "Krebs Cycle", "result": 0.759}, {"measurement": "Linear Ratio, 2-Keto-L-gluconate", "setting": "Microbiome Metabolism", "result": 1.264}, {"measurement": "Linear Ratio, Indoxyl sulfate", "setting": "Microbiome Metabolism", "result": 1.280}, {"measurement": "Linear Ratio, Shikimate-3-phosphate", "setting": "Microbiome Metabolism", "result": 1.047}, {"measurement": "Linear Ratio, p-Hydroxyphenylacetic acid", "setting": "Microbiome Metabolism", "result": 1.192}, {"measurement": "VIP Score, 2-Keto-L-gluconate", "setting": "Microbiome Metabolism", "result": 2.994}, {"measurement": "VIP Score, Indoxyl sulfate", "setting": "Microbiome Metabolism", "result": 1.858}, {"measurement": "VIP Score, Shikimate-3-phosphate", "setting": "Microbiome Metabolism", "result": 1.886}, {"measurement": "VIP Score, p-Hydroxyphenylacetic acid", "setting": "Microbiome Metabolism", "result": 2.546}, {"measurement": "Z Abs, 2-Keto-L-gluconate", "setting": "Microbiome Metabolism", "result": 2.586}, {"measurement": "Z Abs, Indoxyl sulfate", "setting": "Microbiome Metabolism", "result": 0.702}, {"measurement": "Z Abs, Shikimate-3-phosphate", "setting": "Microbiome Metabolism", "result": 1.033}, {"measurement": "Z Abs, p-Hydroxyphenylacetic acid", "setting": "Microbiome Metabolism", "result": 1.464}, {"measurement": "Z Score, 2-Keto-L-gluconate", "setting": "Microbiome Metabolism", "result": 2.586}, {"measurement": "Z Score, Indoxyl sulfate", "setting": "Microbiome Metabolism", "result": 0.702}, {"measurement": "Z Score, Shikimate-3-phosphate", "setting": "Microbiome Metabolism", "result": 1.033}, {"measurement": "Z Score, p-Hydroxyphenylacetic acid", "setting": "Microbiome Metabolism", "result": 1.464}, {"measurement": "Linear Ratio, Azelaic acid", "setting": "[8]", "result": 0.914}, {"measurement": "VIP Score, Azelaic acid", "setting": "[8]", "result": 1.929}, {"measurement": "Z Abs, Azelaic acid", "setting": "[8]", "result": 2.024}]}]}
